“And” between values parts separate entries of the source, which are not always exact repeats. Equal values may be shown once.
What was measured:
[1] = Solubility in pure water at 25° C. with PXRD of solid residues; format: physicochemical
Description: Using a similar strategy as described above, these salts were prepared by evaporation from a solution of free base and acid in a solvent (e.g., methanol-dichloromethane 1:1, ethyl acetate-dichloromethane 1:2, isopropanol, and the like). If necessary, an amorphous salt produced in this way was crystallized by stirring the amorphous material in an appropriate solvent (e.g., ethyl acetate, acetonitrile, and the like).

[2] = Water sorption / dynamic vapor sorption (DVS) hygroscopicity; format: physicochemical
Description: The pKa value of Compound I free base was calculated (ACD Labs pKa DB, v10.0) as 2.12±0.33. Therefore, Compound I free base was considered as a very weak base that could be protonated by strong acids. […] A sample of Compound I free base was analyzed by powder x-ray diffraction and found to be crystalline without any readily detectable amorphous content. […] (onset temperature).
The maximum water uptake for the amorphous salt was about 40% whereas the maximum water uptake for the crystalline di-hydrochloride salt was higher, with about 54% uptake.
The hygroscopic nature of the besylate salt was examined by dynamic vapor sorption analysis (DVS). […] Below 80% relative humidity not much water was adsorbed.

[3] = Example 19 crossover pharmacokinetics of four oral tablet formulations in fasted dogs; format: in vivo, beagle dogs; conditions: Example 19, fasted dogs, 200 mg tablet PO; for concentration at 1 h: read-out: Plasma concentration of Compound I at 1 hour; for concentration at 24 h: read-out: Plasma concentration of Compound I at 24 hours
Description: (§1) Pharmacokinetics parameters of formulations of Compound I and its salts in dogs were determined by orally administering a test formulation tablet at 200 mg of active (Compound I or salt) per dog.
(§2) Blood samples were taken at various times after administration, plasma prepared, and submitted to analysis for parent drug using a qualified LC-MS-MS assay. Pharmacokinetics parameters derived from the plasma analytical data were determined using non-compartmental analysis.
Pharmacokinetics of Compound I was determined in pentagastrin-pretreated male beagle dogs following a single oral (PO) administration at 200 mg/tablet/dog in a 4-phase crossover study with a washout period of at least 7 days in between each phase. Five male non-naive purebred beagle dogs were used in each phase of study. All dogs were pretreated with pentagastrin (6 μg/kg intramuscular administrations) approximately 30 minutes before administration of test article.
Four tablet formulations of test article were assessed, each containing 200 mg test article (free base equivalent). Animals were fasted overnight prior to PO dosing through approximately 4 hours postdose. The tablet dose was administered orally, followed by approximately 10 mL of RO (reverse osmosis) water. Phase 1 animals were given tablets containing Compound I in nanosuspension formulation as described above, phase 2 animals were given tablets containing Compound I in jet-milled form as described above, and phase 4 animals received tablets containing Compound I mono-tosylate salt as described above. In phase 3, tablets including an amorphous solid dispersion as described above were crushed and suspended in water, then dosed to the animals. Each animal received one triturated tablet, which was administered orally by gavage as an aqueous suspension formulation. Blood samples were collected predose and at 0.25, 0.5 1, 2, 4, 8, 24, 36 and 48 hours after the oral dose. Plasma was harvested, and the concentration of Compound I in each sample was determined by a non-validated LC/MS/MS assay. The assay limit of quantitation was 1.02 to 5.1 ng/mL for Compound I.
Mean Compound I concentrations measured in plasma were used to construct semi-logarithmic plasma concentration-time curves (FIG. 13). Pharmacokinetic analysis was performed using a non-compartmental method.

[4] = Example 21 crossover pharmacokinetics of mono-tosylate and di-tosylate tablets in fasted dogs; format: in vivo, beagle dogs; parameters: Plasma concentration of Compound I at 0.25 hours: unit: ng/mL; conditions: Example 21, fasted dogs, 200 mg tablet PO
Description: as §1, §2
Pharmacokinetics of Compound I were determined in pentagastrin-pretreated male beagle dogs following a single oral (PO) administration at 200 mg/tablet per dog in a 2-phase crossover designed study, with a washout period of at least 7 days in between each phase. Five male, non-naive, purebred beagle dogs were used in each phase of the 2-phase crossover study. All dogs were pretreated with pentagastrin (6 μg/kg intramuscular administrations) approximately 30 minutes before test article administration.
Two tablet formulations (mono-tosylate and di-tosylate, as described above) of test article were assessed. Animals were fasted overnight prior to PO dosing through approximately 4 hours post-dose. The tablet was administered orally, followed by approximately 10 mL of reverse osmosis water. Phase 1 animals were given tablets containing Compound I mono-tosylate, and phase 2 animals were given tablets containing Compound I di-tosylate salt. Blood samples were collected pre-dose and at 0.25, 0.5. 1. 2, 4, 8, 24, 36, and 48 hours after the oral dose. Plasma was harvested, and the concentration of Compound I in each plasma sample was determined by an LC/MS/MS assay. The assay lower limit of quantitation was 20 ng/mL for Compound I. Mean Compound I concentrations measured in plasma were used to construct semi-logarithmic plasma concentration-time curves (FIG. 1). Pharmacokinetic analysis was performed using non-compartmental methods.

[5] = individual subjects, LOQ 1.02 to 5.1 ng/mL, mono-tosylate salt
[6] = individual subjects, mono-tosylate salt
[7] = male, beagle, dog, plasma, po, 200 mg, mean
[8] = male, beagle, dog, plasma, po, 200 mg, mean, read-out: AUC0-rt
[9] = male, beagle, dog, plasma, po, 200 mg, mean, read-out: Cmax
[10] = male, beagle, dog, plasma, po, 200 mg/tablet/dog, individual subjects, LOQ 1.02 to 5.1 ng/mL
[11] = male, beagle, dog, plasma, po, 200 mg/tablet/dog, mean, LOQ 1.02 to 5.1 ng/mL
[12] = individual subjects, LLOQ 20 ng/mL, mono-tosylate salt

pH (24 hrs) ([1]; pH of solubility sample, pure water, 25° C., 24 hours): 1.53
pH (1 hr) ([1]; pH of solubility sample, pure water, 25° C., one hour): 1.47
S 24 hrs ([1]; pure water, 25° C., 24 hours equilibration): 1.24 mg/mL
S 1 hr ([1]; pure water, 25° C., one hour): 2.54 mg/mL
solubility at 24 h ([1]; water, 25 °C, water, thermodynamic from solid, Table 5: free base and crystalline salt forms): 1240 µg/mL
reversibility of water adsorption within the timeframe of observation [2]: essentially reversible
Plasma concentration of Compound I at 0.25 hours [3, 5]: 309 and 1500 and 2900 and 39.7 and 571
Plasma concentration of Compound I at 0.5 hours [3, 5]: 3650 and 3910 and 5440 and 726 and 3520
Plasma concentration of Compound I at 1 hour [3, 5]: 5470 and 7310 and 4880 and 5360
Plasma concentration of Compound I at 8 hours [3, 5]: 3650 and 6910 and 2500 and 3060 and 1630
Plasma concentration of Compound I at 24 hours [3, 5]: 597 and BLQ (3×)
Plasma concentration of Compound I at 36 hours [3, 5]: 11.0 and 17.8 and BLQ (2×) and 842
Plasma concentration of Compound I at 48 hours [3, 5]: BLQ (3×) and 200 and 10.1
tmax [3, 6]: 1.00 h
AUC(0-t) [3, 7]: 78500 ng·h/mL
AUC [3, 8]: 78900 ng·h/mL
Cmax [3, 9]: 8100 ng/mL
tmax ([3]; male, beagle, dog, plasma, po, 200 mg, mean, read-out: tmax): 1.8 h
concentration at 1 h [3, 10]: 9450 ng/mL
concentration at 24 h [3, 10]: 352 ng/mL
concentration at 0.25 h ([3]; male, beagle, dog, plasma, po, 200 mg/tablet/dog, mean, LOQ 1.02 to 5.1 ng/mL, read-out: Plasma concentration of Compound I at 0.25 hours): 1060 ng/mL
concentration at 0.5 h ([3]; male, beagle, dog, plasma, po, 200 mg/tablet/dog, mean, LOQ 1.02 to 5.1 ng/mL, read-out: Plasma concentration of Compound I at 0.5 hours): 3450 ng/mL
concentration at 1 h [3, 11]: 6490 ng/mL
concentration at 2 h ([3]; male, beagle, dog, plasma, po, 200 mg/tablet/dog, mean, LOQ 1.02 to 5.1 ng/mL, read-out: Plasma concentration of Compound I at 2 hours): 6960 ng/mL
concentration at 4 h ([3]; male, beagle, dog, plasma, po, 200 mg/tablet/dog, mean, LOQ 1.02 to 5.1 ng/mL, read-out: Plasma concentration of Compound I at 4 hours): 6780 ng/mL
concentration at 8 h ([3]; male, beagle, dog, plasma, po, 200 mg/tablet/dog, mean, LOQ 1.02 to 5.1 ng/mL, read-out: Plasma concentration of Compound I at 8 hours): 3550 ng/mL
concentration at 24 h [3, 11]: 1070 ng/mL
concentration at 36 h ([3]; male, beagle, dog, plasma, po, 200 mg/tablet/dog, mean, LOQ 1.02 to 5.1 ng/mL, read-out: Plasma concentration of Compound I at 36 hours): 290 ng/mL
concentration at 48 h ([3]; male, beagle, dog, plasma, po, 200 mg/tablet/dog, mean, LOQ 1.02 to 5.1 ng/mL, read-out: Plasma concentration of Compound I at 48 hours): 105 ng/mL
Plasma concentration of Compound I at 48 hours ([4]; individual subjects, LLOQ 20 ng/mL): BLQ
Plasma concentration of Compound I at 0.25 hours [4, 12]: 179 and 452 and 100 and 74.0 and 161
Plasma concentration of Compound I at 0.5 hours [4, 12]: 1180 and 3040 and 1320 and 3170
Plasma concentration of Compound I at 8 hours [4, 12]: 1140 and 3110 and 5060 and 5380 and 378
Plasma concentration of Compound I at 24 hours [4, 12]: 95.5 and 4080 and 252 and 1050 and 25.7
Plasma concentration of Compound I at 36 hours [4, 12]: BLQ (3×) and 897 and 74.4
Plasma concentration of Compound I at 48 hours ([4]; mean, LLOQ 20 ng/mL): BLQ
AUC(0-t) [4, 7]: 70200 ng·h/mL
AUC [4, 8]: 70900 ng·h/mL
Cmax [4, 9]: 6480 ng/mL
concentration at 0.25 h ([4]; male, beagle, dog, plasma, po, 200 mg/tablet per dog, mean, LLOQ 20 ng/mL, read-out: Plasma concentration of Compound I at 0.25 hours): 193 ng/mL
concentration at 0.5 h ([4]; male, beagle, dog, plasma, po, 200 mg/tablet per dog, mean, LLOQ 20 ng/mL, read-out: Plasma concentration of Compound I at 0.5 hours): 1910 ng/mL
concentration at 1 h ([4]; male, beagle, dog, plasma, po, 200 mg/tablet per dog, mean, LLOQ 20 ng/mL, read-out: Plasma concentration of Compound I at 1 hour): 4690 ng/mL
concentration at 2 h ([4]; male, beagle, dog, plasma, po, 200 mg/tablet per dog, mean, LLOQ 20 ng/mL, read-out: Plasma concentration of Compound I at 2 hours): 6480 ng/mL
concentration at 4 h ([4]; male, beagle, dog, plasma, po, 200 mg/tablet per dog, mean, LLOQ 20 ng/mL, read-out: Plasma concentration of Compound I at 4 hours): 5730 ng/mL
concentration at 8 h ([4]; male, beagle, dog, plasma, po, 200 mg/tablet per dog, mean, LLOQ 20 ng/mL, read-out: Plasma concentration of Compound I at 8 hours): 3010 ng/mL
concentration at 24 h ([4]; male, beagle, dog, plasma, po, 200 mg/tablet per dog, mean, LLOQ 20 ng/mL, read-out: Plasma concentration of Compound I at 24 hours): 1100 ng/mL
concentration at 36 h ([4]; male, beagle, dog, plasma, po, 200 mg/tablet per dog, mean, LLOQ 20 ng/mL, read-out: Plasma concentration of Compound I at 36 hours): 486 ng/mL
tmax ([4]; male, beagle, dog, plasma, mean, read-out: tmax): 2 h
Structure (SMILES): Cc1ccc(S(=O)(=O)O)cc1.Cn1cc(-c2cn(-c3ccc(OC(F)(F)F)cc3)c(=O)c3ncn(C)c23)cn1 [mono-tosylate, 1-methyl-7-(1-methyl-1H-pyrazol-4-yl)-5-(4-(trifluoromethoxy)phenyl)-1,5-dihydro-4H-imidazo[4,5-c]pyridin-4-one, mono-tosylate salt]
Plasma concentration of Compound I at 2 hours [3, 5]: 9370 and 10200 and 5680 and 5450 and 4130
Plasma concentration of Compound I at 4 hours [3, 5]: 8040 and 12900 and 4590 and 4840 and 3480
AUC0-last [3, 6]: 76500 ng·h/mL and 116000 ng·h/mL and 44300 ng·h/mL and 122000 ng·h/mL and 34200 ng·h/mL
AUC0-rt [3, 6]: 76600 ng·h/mL and 116000 ng·h/mL and 44400 ng·h/mL and 123000 ng·h/mL and 34300 ng·h/mL
Cmax [3, 6]: 9450 ng/mL and 12900 ng/mL and 7310 ng/mL and 5450 ng/mL and 5360 ng/mL
Plasma concentration of Compound I at 4 hours [4, 12]: 3550 and 5080 and 7990 and 10200 and 1850
AUC0-last [4, 6]: 26900 ng·h/mL and 122000 ng·h/mL and 77900 ng·h/mL and 110000 ng·h/mL and 14000 ng·h/mL
AUC0-rt [4, 6]: 27400 ng·h/mL and 123000 ng·h/mL and 79400 ng·h/mL and 110000 ng·h/mL and 14100 ng·h/mL
Cmax [4, 6]: 3570 ng/mL and 5940 ng/mL and 9410 ng/mL and 10500 ng/mL and 2960 ng/mL

Source: patent US20260167638A1, “PHARMACEUTICAL COMPOUND, SALTS THEREOF, FORMULATIONS THEREOF, AND METHODS OF MAKING AND USING SAME” (Genentech, Inc., priority 2018, published 2026)
